According to PMC7426420, “Cupid, a cell permeable peptide derived from amoeba, capable of delivering GFP into a diverse range of species” (Scientific Reports, 2020):

Test system: Dictyostelium discoideum AX2 strain cells
Test: Cell penetration into Dictyostelium amoeba cells, fluorescence microscopy of fixed cells
Assay type: cell-based
Settings: 10 µM, 60 min in buffer, washed 3 times, fixed with Fluorsave, green fluorescent filter; GFP proteins denatured, non-fluorescent when added
Experimental: Dictyostelium discoideum AX2 strain cells were grown on Klebsiella aerogenes plates. For experimentation, cells at the growth zone were collected and washed 5 times with 10 mM potassium phosphate buffer, pH 7.2 and seeded in slide chambers at a density of 10^5 cells/mL. Cells were incubated with FITC-labelled Cupid, Cupid-GFP or H-GFP at the doses indicated for 60 min, washed 3 times in buffer and fixed in situ using Fluorsave (Calbiochem, UK) under a coverslip. Cell microscopy was performed on an upright fluorescence microscope (Olympus BX61) with the green fluorescent filter set, coupled with a digital camera.

Substance | cells become fluorescent (cell-penetrating capability)
RRVQIWFQNKRAKVKR [F-Cupid] | caused the cells to become fluorescent
fluorescein-labelled BSA: fluorescein-labelled BSA control (data not shown) | did not
